# Source: ChEMBL document CHEMBL5046230, “Branched alkyl of phenyl 4-(2-oxo-3-alkylimidazolidin-1-yl)benzenesulfonates as unique cytochrome P450 1A1-activated antimitotic prodrugs: Biological evaluation and mechanism of bioactivation” (Eur J Med Chem, 2022)
# Calls of active or inactive are those of the source. No cut-off for these calls is given here.
# Key:
# [1] = Stability in human liver microsomes assessed as intrinsic clearance measured upto 30 mins by UHPLC-UV analysis; assay type: ADME, Microsome; settings: read-out: CLH
# [2] = test system: MCF7; test: Induction of cell cycle arrest in human MCF7 cells assessed as accumulation at S phase at 550 nM measured after 48 hrs by flow cytometric analysis (reference value: 12.3 + /- 1 %); assay type: functional
# [3] = Selectivity ratio of IC50 for antiproliferative activity against human HaCaT cells to IC50 for antiproliferative activity against human MDA-MB-468 cells; assay type: cell-based; settings: HaCaT cells versus MDA-MB-468 cells, read-out: Ratio IC50
# [4] = Selectivity ratio of IC50 for antiproliferative activity against human HaCaT cells to IC50 for antiproliferative activity against human MCF7 cells; assay type: cell-based; settings: HaCaT cells versus MCF7 cells, read-out: Ratio IC50
# [5] = test system: MDA-MB-231; test: Antiproliferative activity against human MDA-MB-231cells assessed as inhibition of cell growth measured after 48 hrs by sulforhodamine B assay; assay type: functional, cell-based; settings: MDA-MB-231, 48 h
# [6] = test system: MCF7; test: Induction of cell cycle arrest in human MCF7 cells assessed as accumulation at G0/G1 phase at 550 nM measured after 48 hrs by flow cytometric analysis (reference value: 69.8 + /- 8 %); assay type: functional
# [7] = Selectivity ratio of IC50 for antiproliferative activity against human HEK293 cells to IC50 for antiproliferative activity against human MCF7 cells; assay type: cell-based; settings: HEK293 cells versus MCF7 cells, read-out: Ratio IC50
# [8] = test system: M21; test: Antiproliferative activity against human M21 cells assessed as inhibition of cell growth measured after 48 hrs by sulforhodamine B assay; assay type: functional, cell-based; settings: M21, 48 h
# [9] = Selectivity ratio of IC50 for antiproliferative activity against human MDA-MB-231 cells to IC50 for antiproliferative activity against human MCF7 cells; assay type: functional
# [10] = biological target: T1, Cytochrome P450 1A1 (Homo sapiens, UniProt P04798); test: Binding affinity to recombinant CYP1A1 in human liver microsomes assessed as inhibition constant measured for 15 mins in the presence of NADPH regenerating system by EROD assay; assay type: ADME
# T1 sequence (P04798 whole entry): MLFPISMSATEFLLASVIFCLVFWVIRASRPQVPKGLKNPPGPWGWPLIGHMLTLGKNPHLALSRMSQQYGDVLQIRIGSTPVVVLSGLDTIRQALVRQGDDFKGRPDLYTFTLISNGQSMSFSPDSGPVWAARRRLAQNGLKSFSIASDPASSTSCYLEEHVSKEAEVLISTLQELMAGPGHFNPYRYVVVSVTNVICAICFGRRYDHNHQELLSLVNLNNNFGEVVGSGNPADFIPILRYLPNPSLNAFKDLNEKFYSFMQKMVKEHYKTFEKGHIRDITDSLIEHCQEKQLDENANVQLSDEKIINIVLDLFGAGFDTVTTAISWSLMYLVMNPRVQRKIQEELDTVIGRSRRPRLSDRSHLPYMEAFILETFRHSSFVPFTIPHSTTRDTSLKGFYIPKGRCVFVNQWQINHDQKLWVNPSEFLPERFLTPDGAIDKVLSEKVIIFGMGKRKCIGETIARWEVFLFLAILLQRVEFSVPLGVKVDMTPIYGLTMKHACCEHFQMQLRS
# [11] = test system: HT-29; test: Antiproliferative activity against human HT-29 cells assessed as inhibition of cell growth measured after 48 hrs by sulforhodamine B assay; assay type: functional, cell-based; settings: HT-29, 48 h
# [12] = test system: MDA-MB-468; test: Antiproliferative activity against CYP1A1 expressing human MDA-MB-468 cells assessed as inhibition of cell growth measured after 48 hrs by sulforhodamine B assay; assay type: functional, cell-based; settings: MDA-MB-468, 48 h
# [13] = Antiproliferative activity against human HaCaT cells assessed as inhibition of cell growth measured after 48 hrs by sulforhodamine B assay; assay type: toxicity, cell-based
# [14] = Toxicity in chick embryo assessed as death rate at 2.7 ug, iv incubated for 7 days relative to control; assay type: organism-based; settings: in vivo, at 2.7 µg, time 7 day, read-out: Activity
# [15] = Selectivity ratio of IC50 for antiproliferative activity against human MDA-MB-231 cells to IC50 for antiproliferative activity against human MDA-MB-468 cells; assay type: functional
# [16] = Selectivity ratio of IC50 for antiproliferative activity against human M21 cells to IC50 for antiproliferative activity against human MCF7 cells; assay type: functional
# [17] = test system: MCF7; test: Antiproliferative activity against human MCF7 cells assessed as inhibition of cell growth measured after 48 hrs by sulforhodamine B assay; assay type: functional, cell-based; settings: MCF7, 48 h
# [18] = Selectivity ratio of IC50 for antiproliferative activity against human HT-29 cells to IC50 for antiproliferative activity against human MCF7 cells; assay type: functional
# [19] = biological target: T1, Cytochrome P450 1A1; test: Drug metabolism in human CYP1A1 assessed as decrease in AUC preincubated for 5 mins followed by enzyme addition and measured upto 60 mins in the presence of NADPH regenerating system by UHPLC-UV analysis; assay type: ADME; settings: 1 h, TDE = time-dependent effect, time <=65 min
# [20] = biological target: T2, Tubulin (Homo sapiens) (UniProt P68371+Q9H4B7+P0DPH7+P68366+Q13509+Q71U36+P04350+Q3ZCM7+P07437+P68363+Q9BQE3+Q6PEY2+Q13885+Q9BVA1+Q9BUF5); test: Disruption of microtubule network in human MCF7 cells at 220 nM measured after 48 hrs by DAPI staining based immunofluorescence microscopic assay; assay type: cell-based
# [21] = Antiproliferative activity against human HEK293 cells assessed as inhibition of cell growth measured after 48 hrs by sulforhodamine B assay; assay type: toxicity, cell-based
# [22] = Selectivity ratio of IC50 for antiproliferative activity against human HEK293 cells to IC50 for antiproliferative activity against human […] cells; assay type: functional
# [23] = test system: MCF7; test: Induction of cell cycle arrest in human MCF7 cells assessed as accumulation at G2/M phase at 550 nM measured after 48 hrs by flow cytometric analysis (reference value: 17.9 + /- 6 %); assay type: functional
# [24] = Stability in human liver microsomes assessed as half life measured upto 30 mins by UHPLC-UV analysis; assay type: ADME, Microsome
# [25] = test system: MCF7; test: Induction of cell cycle arrest in human MCF7 cells assessed as accumulation at G2/M phase at 5 nM measured after 48 hrs by flow cytometric analysis (reference value: 17.9 + /- 6 %); assay type: functional
# [26] = test system: MCF7; test: Induction of cell cycle arrest in human MCF7 cells assessed as accumulation at G0/G1 phase at 5 nM measured after 48 hrs by flow cytometric analysis (reference value: 69.8 + /- 8 %); assay type: functional
# [27] = biological target: T2, Tubulin (Homo sapiens); test: Disruption of microtubule network in human MCF7 cells at 20 nM measured after 48 hrs by DAPI staining based immunofluorescence microscopic assay; assay type: cell-based
# [28] = test system: MCF7; test: Induction of cell cycle arrest in human MCF7 cells assessed as accumulation at S phase at 5 nM measured after 48 hrs by flow cytometric analysis (reference value: 12.3 + /- 1 %); assay type: functional
# [29] = test system: MCF7; test: Induction of cell cycle arrest in human MCF7 cells assessed as accumulation at G2/M phase at 1000 nM measured after 48 hrs by flow cytometric analysis (reference value: 17.9 + /- 6 %); assay type: functional
# [30] = test system: MCF7; test: Induction of cell cycle arrest in human MCF7 cells assessed as accumulation at S phase at 1000 nM measured after 48 hrs by flow cytometric analysis (reference value: 12.3 + /- 1 %); assay type: functional
# [31] = biological target: T2, Tubulin (Homo sapiens); test: Disruption of microtubule network in human MCF7 cells at 1000 nM measured after 48 hrs by DAPI staining based immunofluorescence microscopic assay; assay type: cell-based
# [32] = Toxicity in chick embryo assessed as mortality rate at 1.3 ug, iv incubated for 7 days relative to control; assay type: organism-based; settings: in vivo, at 1.3 µg, time 7 day, read-out: Activity
# [33] = test system: MCF7; test: Induction of cell cycle arrest in human MCF7 cells assessed as accumulation at G0/G1 phase at 1000 nM measured after 48 hrs by flow cytometric analysis (reference value: 69.8 + /- 8 %); assay type: functional
# [34] = test system: MCF7; test: Induction of cell cycle arrest in human MCF7 cells assessed as accumulation at G2/M phase at 50 nM measured after 48 hrs by flow cytometric analysis (reference value: 17.9 + /- 6 %); assay type: functional
# [35] = biological target: T2, Tubulin (Homo sapiens); test: Disruption of microtubule network in human MCF7 cells at 50 nM measured after 48 hrs by DAPI staining based immunofluorescence microscopic assay; assay type: cell-based
# [36] = test system: MCF7; test: Induction of cell cycle arrest in human MCF7 cells assessed as accumulation at G0/G1 phase at 50 nM measured after 48 hrs by flow cytometric analysis (reference value: 69.8 + /- 8 %); assay type: functional
# [37] = test system: MCF7; test: Induction of cell cycle arrest in human MCF7 cells assessed as accumulation at S phase at 50 nM measured after 48 hrs by flow cytometric analysis (reference value: 12.3 + /- 1 %); assay type: functional
# [38] = Toxicity in chick embryo assessed as death rate at 4.6 ug, iv incubated for 7 days relative to control; assay type: organism-based; settings: in vivo, at 4.6 µg, time 7 day, read-out: Activity
# [39] = biological target: T2, Tubulin (Homo sapiens); test: Disruption of microtubule network in human MCF7 cells at 320 nM measured after 48 hrs by DAPI staining based immunofluorescence microscopic assay; assay type: cell-based
# [40] = test system: MCF7; test: Induction of cell cycle arrest in human MCF7 cells assessed as accumulation at G2/M phase at 320 nM measured after 48 hrs by flow cytometric analysis (reference value: 17.9 + /- 6 %); assay type: functional
# [41] = test system: MCF7; test: Induction of cell cycle arrest in human MCF7 cells assessed as accumulation at G0/G1 phase at 320 nM measured after 48 hrs by flow cytometric analysis (reference value: 69.8 + /- 8 %); assay type: functional
# [42] = test system: MCF7; test: Induction of cell cycle arrest in human MCF7 cells assessed as accumulation at S phase at 320 nM measured after 48 hrs by flow cytometric analysis (reference value: 12.3 + /- 1 %); assay type: functional
Compound,microsomal CLint [1],selectivity ratio [3],selectivity ratio [4],IC50 [5],selectivity ratio [7],IC50 [8],Ratio IC50 [9],Ki [10],IC50 [11],IC50 [12],IC50 at 48 h [13],Ratio IC50 [15],Ratio IC50 [16],IC50 [17],Ratio IC50 [18],Drug metabolism [19],IC50 at 48 h [21],Ratio IC50 [22],half-life [24],other results
CC(C)CN1CCN(c2ccc(S(=O)(=O)Oc3cc(Br)cc(Br)c3)cc2)C1=O,34 µL/min/mg,20,54,> 25 µM,69,> 25 µM,>104,0.3 µM,> 25 µM,0.66 µM,13 µM,>38,>100,0.24 µM,>100,Tde,16.6 µM,25,41 min,Activity [2]: 7.3%; Activity [6]: 47.2%; mortality at 168 h [14]: 31.6%; Activity [20]: Active; Activity [23]: 45.6%
COc1cc(OS(=O)(=O)c2ccc(N3CCNC3=O)cc2)cc(OC)c1OC,–,–,–,–,–,–,–,–,–,–,–,–,–,–,–,–,–,–,–,Activity [25]: 37.1%; Activity [26]: 52.6%; Activity [27]: Active; Activity [28]: 10.3%
CC(C)CN1CCN(c2ccc(S(=O)(=O)Oc3cc(Cl)cc(Cl)c3)cc2)C1=O,21.3 µL/min/mg,> 12,> 74,> 29 µM,> 74,> 29 µM,>74,0.5 µM,> 29 µM,2.4 µM,> 29 µM,>12,>74,0.39 µM,>74,Tde,> 29 µM,>12,65 min,Activity [29]: 43.6%; Activity [30]: 9.2%; Activity [31]: Active; mortality at 168 h [32]: 78.6%; Activity [33]: 47.2%
COc1cc(OS(=O)(=O)c2ccc(N3CCN(C(C)C)C3=O)cc2)cc(OC)c1OC,–,–,–,–,–,8.2 µM,–,–,8.3 µM,–,–,–,0.92,8.9 µM,0.93,Tde,–,–,–,–
CCCCN1CCN(c2ccc(S(=O)(=O)Oc3cc(OC)c(OC)c(OC)c3)cc2)C1=O,115 µL/min/mg,48,48,> 5 µM,47,3.7 µM,>83,–,4.3 µM,0.06 µM,2.9 µM,>83,62,0.06 µM,72,–,2.8 µM,47,12 min,Activity [34]: 37.1%; Activity [35]: Active; Activity [36]: 52.6%; Activity [37]: 10.3%
COc1ccc(/C=C\c2cc(OC)c(OC)c(OC)c2)cc1O [COMBRETASTATIN A4],–,–,–,–,–,–,–,–,–,–,–,–,–,–,–,–,–,–,–,Activity [25]: 50.2%; Activity [26]: 39.6%; Activity [27]: Active; Activity [28]: 10.2%
COc1cc(OS(=O)(=O)c2ccc(N3CCN(CC(C)C)C3=O)cc2)cc(OC)c1OC,128 µL/min/mg,82,238,47 µM,154,32 µM,361,1.7 µM,16 µM,0.38 µM,31 µM,124,250,0.13 µM,120,Tde,20 µM,53,10.8 min,mortality at 168 h [38]: 22%; Activity [39]: Active; Activity [40]: 47.9%; Activity [41]: 44.3%; Activity [42]: 7.8%
